# Activity calls are given as the source filed them.
# Legend:
# [1] = cytotoxicity toward DRD oncogenic fibroblasts, dose response, cell-based, non-viral oncogenic, luminescence (AID 1934); type: functional; conditions: Homo sapiens
# [2] = cytotoxicity in HEK-293T cells, dose response, cytotoxicity control for TCR NF-kB inhibitor project, luminescence, T-cell screen hits (AID 489026); type: functional, cell-based;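 also: cells exposed to compound about 14 hours before the viability readout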
# CAAX prenyl protease 1 = CAAX prenyl protease 1 (Saccharomyces cerevisiae S288c, UniProt P47154); assay: Ste24 protease inhibitors, dose response, biochemical, S. cerevisiae, plate reader, cherry-pick (AID 488815)
# INS1 = assay: beta cell apoptosis inhibitors, cytokine rescue, dose response, luminescence, retest (AID 449756); type: functional, cell-based; conditions: Rattus norvegicus;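 also: cell death triggered by IL-1 beta plus TNF-alpha plus IFN-gamma mixture; protective hits raise ATP signal compared with cytokine alone wells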
# BJ [3] = assay: cytotoxicity toward BJ-TERT fibroblasts, dose response, cell-based, RAS-independent, luminescence (AID 1933); type: functional; conditions: Homo sapiens
# [4] = NIH-3T3 fibroblast cytotoxicity, dose response, cytotoxicity control, cell-based, fluorescence, Alamar Blue, secondary assay (AID 2327); type: functional;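 also: NIH-3T3 mouse fibroblasts cultured with fluconazole at 8 µg/mL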
# CAAX prenyl protease 2 = CAAX prenyl protease 2 (Homo sapiens, UniProt Q9Y256); assay: human Rce1 protease inhibitors, dose response, biochemical, yeast membranes, quenched-peptide fluorescence, cherry-pick (AID 588849)
# Trypsin = Trypsin (Sus scrofa, UniProt P00761); assay: porcine trypsin inhibitors, dose response, selectivity assay for Rce1 protease inhibitor project, biochemical, quenched peptide fluorescence, cherry-pick (AID 488789)
# [5] = C. albicans growth with fluconazole, confirmation, fluorescence, retest (AID 2467); type: functional, cell-based
# BJ [6] = assay: cytotoxicity toward BJ-TERT-LT-ST fibroblasts, dose response, cell-based, RAS-independent, luminescence (AID 1935); type: functional; conditions: Homo sapiens;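 also: BJ fibroblasts immortalized with TERT plus LT and ST oncogenes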
# BJ [7] = assay: cells; type: functional, cell-based; conditions: Homo sapiens
# [8] = biological target: T1, Delta-type opioid receptor (Homo sapiens, UniProt P41143); assay: HTS Image-Based Screen for Agonists of the DOR Receptor. [Related pubchem assays (depositor defined):AID1777, AID1786, AID2133]; type: functional
# [9] = Vero E6 cell cytotoxicity, dose response, cytotoxicity control for non-replicating M. tuberculosis project, secondary assay (AID 492998); type: functional, VeroE6; conditions: Vero C1008
# [10] = cytotoxicity toward NIH3T3 fibroblasts, dose response, counter-screen, cell-based, ATP luminescence, mouse fibroblasts (AID 2010); type: functional;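 also: cells exposed to compound for about 90 hours before reading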
# cells [11] = type: functional
# [12] = biological target: T2, Kappa-type opioid receptor (Homo sapiens, UniProt P41145); type: functional
# [13] = biological target: T2, Kappa-type opioid receptor; type: functional; remark: listed apart in the source
# [14] = biological target: T1, Delta-type opioid receptor; assay: HTS Image-Based Screen for Antagonists of the DOR Receptor. [Related pubchem assays (depositor defined):AID1777, AID1785, AID1786, AID2133]; type: functional
# Beta-galactosidase [15] = biological target: T3, Beta-galactosidase (Escherichia coli, UniProt Q8VNN2); assay: PubChem AID 485352; type: functional
# [16] = THP-1 cell cytotoxicity, dose response, cytotoxicity control for non-replicating M. tuberculosis project (AID 489025); type: functional
# [17] = inhibitors of intracellular T. cruzi replication, confirmation, NIH3T3 host cells, beta-gal luminescence (AID 2044); type: functional, cell-based;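 also: intracellular parasites grown in NIH/3T3 mouse fibroblasts as host cells; luminescent beta-galactosidase reporter signal from transgenic T. cruzi replicating inside host cells; inhibitors lower the luminescence signal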
# [18] = system: Streptococcus sp. 'group A'; assay: growth inhibition of control SK(-) GAS strain, dose response, counter-screen for streptokinase expression inhibitor project, luminescence, kanamycin, BacTiterGlo, confirmation (AID 1900); type: functional, organism-based
# Beta-galactosidase [19] = biological target: T3, Beta-galactosidase; type: functional
# Mu-type opioid receptor [20] = biological target: T4, Mu-type opioid receptor (Homo sapiens, UniProt P35372); assay: HTS Image-Based Screen for Agonists of the MOR Receptor. [Related pubchem assays (depositor defined):AID1777, AID1785, AID1786, AID2133]; type: functional
# Streptococcus = assay: Group A Streptococcus viability loss, dose response, counter-screen for streptokinase expression inhibitor project, luminescence, BacTiterGlo (AID 1915); type: functional, organism-based;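 also: potency for reduction of bacterial viability or growth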
# [21] = biological target: Type-1 angiotensin II receptor (Homo sapiens, UniProt P30556); assay: AT1 receptor antagonists, dose response, selectivity assay for APJ receptor antagonist project, cell-based, uHTS hits (AID 463214); type: functional;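 also: antagonist potency against angiotensin II stimulated AT1 response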
# [22] = HepG2 cell cytotoxicity, dose response, cytotoxicity control for non-replicating M. tuberculosis project (AID 489018); type: functional; conditions: Mycobacterium tuberculosis
# [23] = biological target: Beta-2 adrenergic receptor (Homo sapiens, UniProt P07550); assay: beta2AR agonists driving receptor internalization, dose response, cell-based, FAP fluorogen, flow cytometry, cherry pick 1 (AID 588763); type: functional
# [24] = biological target: T5, Beta-adrenergic receptor kinase 1 (Homo sapiens, UniProt P25098); assay: aptamer displacement from bead-bound GRK2 – biochemical, cherry pick 1, bead flow cytometry, dose response (AID 504500)
# T5 sequence (P25098 whole entry): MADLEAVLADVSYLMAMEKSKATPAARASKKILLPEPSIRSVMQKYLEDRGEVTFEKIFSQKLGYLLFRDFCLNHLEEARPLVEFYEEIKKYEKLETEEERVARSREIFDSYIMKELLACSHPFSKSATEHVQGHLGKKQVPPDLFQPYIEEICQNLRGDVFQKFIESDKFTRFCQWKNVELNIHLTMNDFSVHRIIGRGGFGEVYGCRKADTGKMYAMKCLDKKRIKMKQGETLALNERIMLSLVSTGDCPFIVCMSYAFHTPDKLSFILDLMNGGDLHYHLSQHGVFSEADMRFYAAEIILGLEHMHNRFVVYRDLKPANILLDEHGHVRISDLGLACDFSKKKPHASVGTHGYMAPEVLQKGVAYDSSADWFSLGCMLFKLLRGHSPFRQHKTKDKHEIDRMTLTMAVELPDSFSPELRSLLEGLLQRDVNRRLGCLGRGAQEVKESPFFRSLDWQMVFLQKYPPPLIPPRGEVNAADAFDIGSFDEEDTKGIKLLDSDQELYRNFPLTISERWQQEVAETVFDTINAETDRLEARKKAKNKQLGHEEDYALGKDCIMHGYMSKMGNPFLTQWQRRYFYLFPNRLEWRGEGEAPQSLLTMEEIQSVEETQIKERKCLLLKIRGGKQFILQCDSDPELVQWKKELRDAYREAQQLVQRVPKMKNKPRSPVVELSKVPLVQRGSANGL
# cells [25] = type: functional, cell-based
# cells [26] = type: functional, cell-based; remark: listed apart in the source
# [27] = biological target: T5, Beta-adrenergic receptor kinase 1; assay: GRK2 inhibitors displacing RNA aptamer, dose response, biochemical, flow cytometry beads, FAM-aptamer, powder set 1 (AID 588720)
# [28] = biological target: T6, Carboxy-terminal domain RNA polymerase II polypeptide A small phosphatase 1 (Homo sapiens, UniProt Q9GZU7); assay: inhibitors of CTDSP1, concentration-response testing, biochemical assay, absorbance-based, actives from ultra-high-throughput screening (AID 540297); type: functional
# T6 sequence (Q9GZU7 whole entry): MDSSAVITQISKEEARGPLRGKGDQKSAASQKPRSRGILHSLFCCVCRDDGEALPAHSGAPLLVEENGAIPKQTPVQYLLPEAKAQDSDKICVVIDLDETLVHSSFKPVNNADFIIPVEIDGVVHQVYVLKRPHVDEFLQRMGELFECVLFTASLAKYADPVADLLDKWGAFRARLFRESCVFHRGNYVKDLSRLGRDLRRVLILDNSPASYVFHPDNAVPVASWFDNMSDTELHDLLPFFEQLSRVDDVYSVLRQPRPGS
# Vero [29] = assay: cells; type: functional; conditions: Chlorocebus sabaeus
# Vero [30] = assay: cells; type: functional, cell-based; conditions: Chlorocebus sabaeus
# [31] = biological target: T7, Short transient receptor potential channel 4 (Mus musculus, UniProt Q9QUQ5); assay: mouse TRPC4 channel activators, dose response, cell-based, HEK293 TRPC4/mu-opioid, Fluo-4 calcium (AID 434937); type: functional
# T7 sequence (Q9QUQ5 whole entry): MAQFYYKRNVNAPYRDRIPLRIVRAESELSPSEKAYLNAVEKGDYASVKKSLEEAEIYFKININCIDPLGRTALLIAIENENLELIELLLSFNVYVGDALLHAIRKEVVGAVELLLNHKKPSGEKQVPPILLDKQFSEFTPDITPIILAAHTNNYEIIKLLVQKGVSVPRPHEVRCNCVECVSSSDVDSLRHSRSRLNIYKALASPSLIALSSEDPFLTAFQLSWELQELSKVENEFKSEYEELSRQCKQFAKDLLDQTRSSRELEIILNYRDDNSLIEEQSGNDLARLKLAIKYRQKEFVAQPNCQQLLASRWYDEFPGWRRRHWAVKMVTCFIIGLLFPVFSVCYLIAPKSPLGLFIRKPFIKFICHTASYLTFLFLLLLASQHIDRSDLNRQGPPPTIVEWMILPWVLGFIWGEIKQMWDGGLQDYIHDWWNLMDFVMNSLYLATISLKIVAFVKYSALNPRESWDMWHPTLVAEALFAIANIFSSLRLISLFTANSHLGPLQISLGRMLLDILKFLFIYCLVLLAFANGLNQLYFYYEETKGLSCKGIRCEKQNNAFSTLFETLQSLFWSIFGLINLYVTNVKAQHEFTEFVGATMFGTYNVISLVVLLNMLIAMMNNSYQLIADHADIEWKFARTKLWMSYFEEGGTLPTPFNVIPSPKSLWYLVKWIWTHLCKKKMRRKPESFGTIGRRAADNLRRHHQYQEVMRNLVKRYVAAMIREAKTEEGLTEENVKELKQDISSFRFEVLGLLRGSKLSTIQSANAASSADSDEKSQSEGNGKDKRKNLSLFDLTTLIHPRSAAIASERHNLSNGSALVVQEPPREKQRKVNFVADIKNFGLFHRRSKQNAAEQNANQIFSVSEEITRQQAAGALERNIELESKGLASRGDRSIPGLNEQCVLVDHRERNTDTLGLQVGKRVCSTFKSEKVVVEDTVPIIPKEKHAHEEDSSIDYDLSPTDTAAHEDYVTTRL
# [32] = biological target: T1, Delta-type opioid receptor; assay: Counterscreen for agonists of heterodimerization of the mu 1 (OPRM1) and delta 1 (OPRD1) opioid receptors: Luminescence-based cell-based high throughput dose response assay to identify agonists of OPRD1 homodimerization. [Related pubchem assays (depositor defined):AID504326, AID504355, AID504692, AID504904, AID504905]; type: functional
# Mu-type opioid receptor [33] = biological target: T4, Mu-type opioid receptor; assay: Counterscreen for agonists of heterodimerization of the mu 1 (OPRM1) and delta 1 (OPRD1) opioid receptors: Luminescence-based cell-based high throughput dose response assay to identify agonists of OPRM1 homodimerization.; type: functional
# [34] = biological target: 5-hydroxytryptamine receptor 5A (Homo sapiens, UniProt P47898); assay: Counterscreen for agonists of OPRM1-OPRD1 heterodimerization: luminescence-based cell-based high throughput dose response assay to identify agonists of 5-hydroxytryptamine (serotonin) 5A receptor (HTR5A). [Related pubchem assays (depositor defined):AID504326, AID504355, AID504692, AID504904, AID504905]; type: functional
# Cytochrome P450 2C9 = Cytochrome P450 2C9 (Homo sapiens, UniProt P11712)
# [35] = biological target: Voltage-gated inwardly rectifying potassium channel KCNH2 (Homo sapiens, UniProt Q12809); conditions: Potency;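 also: confirmatory quantitative high-throughput screen measuring inhibition of hERG channel activity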
# T1 sequence (P41143 whole entry): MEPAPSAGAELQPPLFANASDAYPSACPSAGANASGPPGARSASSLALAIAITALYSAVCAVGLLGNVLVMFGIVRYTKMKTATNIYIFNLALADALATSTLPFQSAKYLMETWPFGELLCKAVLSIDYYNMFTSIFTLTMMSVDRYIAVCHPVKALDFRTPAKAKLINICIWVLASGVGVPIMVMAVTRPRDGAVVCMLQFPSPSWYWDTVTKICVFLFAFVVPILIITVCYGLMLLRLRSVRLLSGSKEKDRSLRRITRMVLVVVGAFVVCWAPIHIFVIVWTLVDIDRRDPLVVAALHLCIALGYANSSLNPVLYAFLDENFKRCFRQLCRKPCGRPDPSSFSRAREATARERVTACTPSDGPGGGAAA
# T2 sequence (P41145 whole entry): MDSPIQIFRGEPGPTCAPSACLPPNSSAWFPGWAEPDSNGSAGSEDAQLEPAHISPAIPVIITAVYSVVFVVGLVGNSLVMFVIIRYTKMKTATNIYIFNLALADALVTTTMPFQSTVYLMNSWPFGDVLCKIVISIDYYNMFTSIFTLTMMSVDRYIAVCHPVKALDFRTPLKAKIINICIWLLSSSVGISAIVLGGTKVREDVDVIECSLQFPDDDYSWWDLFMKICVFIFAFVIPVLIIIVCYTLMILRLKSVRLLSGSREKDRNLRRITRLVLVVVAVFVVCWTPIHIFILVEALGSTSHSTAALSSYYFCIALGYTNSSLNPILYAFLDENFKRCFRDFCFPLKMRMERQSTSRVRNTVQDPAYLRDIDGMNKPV
# T3 sequence (Q8VNN2 whole entry): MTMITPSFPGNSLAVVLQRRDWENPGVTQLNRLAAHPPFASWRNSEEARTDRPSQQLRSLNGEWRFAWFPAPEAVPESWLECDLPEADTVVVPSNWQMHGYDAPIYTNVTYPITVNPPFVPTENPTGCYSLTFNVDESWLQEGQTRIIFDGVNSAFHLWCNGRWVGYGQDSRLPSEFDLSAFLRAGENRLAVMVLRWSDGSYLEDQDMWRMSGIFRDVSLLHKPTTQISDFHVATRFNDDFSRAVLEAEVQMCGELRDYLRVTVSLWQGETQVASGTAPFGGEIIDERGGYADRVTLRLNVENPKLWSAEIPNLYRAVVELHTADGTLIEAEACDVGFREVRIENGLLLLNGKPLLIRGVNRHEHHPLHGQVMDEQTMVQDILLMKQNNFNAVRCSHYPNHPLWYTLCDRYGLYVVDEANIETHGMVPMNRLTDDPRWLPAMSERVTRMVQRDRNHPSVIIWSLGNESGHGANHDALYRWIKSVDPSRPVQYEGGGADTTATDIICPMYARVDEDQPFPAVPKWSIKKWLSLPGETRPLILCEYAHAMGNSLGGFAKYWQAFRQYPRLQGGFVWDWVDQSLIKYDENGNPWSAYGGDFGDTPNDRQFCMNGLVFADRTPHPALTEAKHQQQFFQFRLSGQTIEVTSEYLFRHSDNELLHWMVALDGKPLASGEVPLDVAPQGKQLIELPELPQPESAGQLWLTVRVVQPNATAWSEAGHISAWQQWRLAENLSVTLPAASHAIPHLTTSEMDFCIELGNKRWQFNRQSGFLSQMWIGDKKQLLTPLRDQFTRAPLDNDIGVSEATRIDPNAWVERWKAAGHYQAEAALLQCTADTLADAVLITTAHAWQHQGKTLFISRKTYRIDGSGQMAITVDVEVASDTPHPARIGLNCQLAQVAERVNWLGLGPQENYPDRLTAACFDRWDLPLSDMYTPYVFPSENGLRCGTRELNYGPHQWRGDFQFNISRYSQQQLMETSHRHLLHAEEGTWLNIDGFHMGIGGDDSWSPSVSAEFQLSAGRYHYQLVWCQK
# T4 sequence (P35372 whole entry): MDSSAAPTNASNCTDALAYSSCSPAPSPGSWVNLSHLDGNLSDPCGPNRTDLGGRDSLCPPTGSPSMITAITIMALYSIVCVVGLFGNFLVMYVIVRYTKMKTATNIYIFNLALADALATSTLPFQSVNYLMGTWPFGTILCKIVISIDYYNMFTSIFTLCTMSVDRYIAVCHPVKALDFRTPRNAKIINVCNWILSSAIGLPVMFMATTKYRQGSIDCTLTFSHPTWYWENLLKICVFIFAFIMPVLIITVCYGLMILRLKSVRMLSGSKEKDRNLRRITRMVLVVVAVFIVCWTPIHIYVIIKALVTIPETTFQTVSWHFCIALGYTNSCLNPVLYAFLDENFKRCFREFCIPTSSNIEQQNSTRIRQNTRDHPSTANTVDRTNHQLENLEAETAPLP
# Chain of CAAX prenyl protease 2 (Q9Y256 whole entry): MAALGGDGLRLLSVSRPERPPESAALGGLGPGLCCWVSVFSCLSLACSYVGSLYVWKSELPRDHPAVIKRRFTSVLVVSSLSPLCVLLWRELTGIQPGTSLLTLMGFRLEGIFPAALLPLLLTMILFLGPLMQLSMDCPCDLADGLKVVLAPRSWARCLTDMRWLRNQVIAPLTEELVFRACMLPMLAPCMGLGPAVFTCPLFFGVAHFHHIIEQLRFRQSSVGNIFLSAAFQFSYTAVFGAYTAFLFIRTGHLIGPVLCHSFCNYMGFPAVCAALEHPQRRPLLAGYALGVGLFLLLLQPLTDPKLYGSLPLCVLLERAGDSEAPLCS
# Chain of Type-1 angiotensin II receptor (P30556 whole entry): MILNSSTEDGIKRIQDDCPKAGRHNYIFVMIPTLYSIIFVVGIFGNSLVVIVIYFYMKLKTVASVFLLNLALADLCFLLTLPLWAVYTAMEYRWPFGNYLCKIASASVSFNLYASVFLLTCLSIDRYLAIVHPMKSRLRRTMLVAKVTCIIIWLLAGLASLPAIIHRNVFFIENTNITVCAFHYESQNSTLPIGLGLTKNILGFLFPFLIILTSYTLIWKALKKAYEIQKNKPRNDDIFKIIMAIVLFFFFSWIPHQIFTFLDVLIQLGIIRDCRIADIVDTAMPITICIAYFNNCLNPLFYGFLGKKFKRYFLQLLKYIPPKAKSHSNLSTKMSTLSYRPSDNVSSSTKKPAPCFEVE
# Chain of Trypsin (P00761 whole entry): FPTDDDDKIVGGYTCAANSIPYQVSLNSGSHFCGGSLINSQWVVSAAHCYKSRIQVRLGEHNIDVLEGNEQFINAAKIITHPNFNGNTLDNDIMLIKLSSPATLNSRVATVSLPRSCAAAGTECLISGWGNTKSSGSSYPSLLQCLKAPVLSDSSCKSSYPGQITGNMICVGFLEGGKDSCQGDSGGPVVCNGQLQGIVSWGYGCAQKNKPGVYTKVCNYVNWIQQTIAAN
# Chain of Cytochrome P450 2C9 (P11712 whole entry): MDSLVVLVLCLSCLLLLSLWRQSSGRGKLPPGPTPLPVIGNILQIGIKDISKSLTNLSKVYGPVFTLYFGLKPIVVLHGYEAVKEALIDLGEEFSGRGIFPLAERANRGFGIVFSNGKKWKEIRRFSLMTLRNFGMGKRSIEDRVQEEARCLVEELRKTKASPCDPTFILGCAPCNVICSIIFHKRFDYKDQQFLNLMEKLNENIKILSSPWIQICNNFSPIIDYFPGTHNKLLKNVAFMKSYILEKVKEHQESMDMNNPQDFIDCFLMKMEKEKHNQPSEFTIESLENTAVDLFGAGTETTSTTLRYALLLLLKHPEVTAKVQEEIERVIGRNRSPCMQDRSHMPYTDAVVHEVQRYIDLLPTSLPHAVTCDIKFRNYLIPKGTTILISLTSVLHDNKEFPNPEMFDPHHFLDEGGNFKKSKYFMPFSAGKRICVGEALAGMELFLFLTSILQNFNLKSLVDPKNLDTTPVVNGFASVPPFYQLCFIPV
# Chain of Beta-2 adrenergic receptor (P07550 whole entry): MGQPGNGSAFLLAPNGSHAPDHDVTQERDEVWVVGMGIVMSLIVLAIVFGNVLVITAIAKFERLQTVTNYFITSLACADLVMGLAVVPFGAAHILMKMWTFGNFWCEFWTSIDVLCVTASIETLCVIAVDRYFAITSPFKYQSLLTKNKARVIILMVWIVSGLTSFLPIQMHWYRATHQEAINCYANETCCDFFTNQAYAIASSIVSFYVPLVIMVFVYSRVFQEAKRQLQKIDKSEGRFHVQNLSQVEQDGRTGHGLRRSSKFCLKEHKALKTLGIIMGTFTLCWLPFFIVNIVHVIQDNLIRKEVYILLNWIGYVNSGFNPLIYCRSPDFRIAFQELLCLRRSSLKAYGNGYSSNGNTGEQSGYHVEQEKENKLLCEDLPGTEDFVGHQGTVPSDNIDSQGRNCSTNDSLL
# Chain of 5-hydroxytryptamine receptor 5A (P47898 whole entry): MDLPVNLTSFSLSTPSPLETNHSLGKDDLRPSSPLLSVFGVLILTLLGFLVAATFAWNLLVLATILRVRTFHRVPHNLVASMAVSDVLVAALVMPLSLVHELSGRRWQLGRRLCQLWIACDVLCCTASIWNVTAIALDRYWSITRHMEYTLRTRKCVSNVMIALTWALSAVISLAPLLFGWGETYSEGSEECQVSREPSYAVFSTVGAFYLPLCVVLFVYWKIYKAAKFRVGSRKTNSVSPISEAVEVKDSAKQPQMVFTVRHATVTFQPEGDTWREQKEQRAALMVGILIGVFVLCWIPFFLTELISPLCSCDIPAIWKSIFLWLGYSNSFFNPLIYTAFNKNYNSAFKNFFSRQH
# Chain of CAAX prenyl protease 1 (P47154 whole entry): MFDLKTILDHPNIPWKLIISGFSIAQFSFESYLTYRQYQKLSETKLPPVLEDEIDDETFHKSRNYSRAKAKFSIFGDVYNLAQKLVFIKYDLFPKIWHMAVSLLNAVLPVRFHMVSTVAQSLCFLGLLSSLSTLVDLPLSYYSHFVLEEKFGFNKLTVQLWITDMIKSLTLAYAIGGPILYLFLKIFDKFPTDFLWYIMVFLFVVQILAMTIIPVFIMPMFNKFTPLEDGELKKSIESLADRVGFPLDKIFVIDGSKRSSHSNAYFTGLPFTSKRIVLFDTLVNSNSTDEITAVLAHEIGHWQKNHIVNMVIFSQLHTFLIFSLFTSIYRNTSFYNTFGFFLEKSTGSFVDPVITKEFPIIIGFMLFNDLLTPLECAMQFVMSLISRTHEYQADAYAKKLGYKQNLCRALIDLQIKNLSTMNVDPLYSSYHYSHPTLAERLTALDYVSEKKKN
compound,measurement,setting,value
Cc1ccc(-c2cc(-c3ccc(C)cc3)[n+](-c3ccccc3)c(-c3ccc(C)cc3)c2)cc1.[O-][Cl+3]([O-])([O-])[O-],EC50,[1],1.05 µM (active)
same,IC50,[2],20.3 µM (inactive)
same,AC50,CAAX prenyl protease 1,13.7 µM (active)
same,AC50,INS1,0.382 µM (active)
same,EC50,BJ [3],0.689 µM (active)
same,EC50,[4],18.4 µM (inconclusive)
same,AC50,CAAX prenyl protease 2,20.7 µM (active)
same,AC50,Trypsin,23.8 µM (active)
same,EC50,[5],0.178 µM (active)
same,EC50,BJ [6],1.33 µM (inconclusive)
same,EC50,BJ [7],2.12 µM (active)
Cc1[nH]c2ccccc2c1/C=C1\SC(=N)N(c2nccs2)C1=O,EC50,[8],> 32 µM (inactive)
same,CC50,[9],5.16 µM (active)
same,EC50,[10],5.8 µM (active)
same,IC50,cells [11],< 0.1 µM (active)
same,IC50,[12],6.76 µM (active)
same,IC50,[13],18.1 µM
same,IC50,[14],23.4 µM (inactive)
same,EC50,Beta-galactosidase [15],> 40 µM (inactive)
same,CC50,[16],10.1 µM (active)
same,EC50,[17],1.17 µM (active)
same,EC50,[18],0.198 µM (active)
same,EC50,Beta-galactosidase [19],> 31.5 µM (inactive)
same,EC50,Mu-type opioid receptor [20],> 32 µM (inactive)
same,EC50,Streptococcus,1.08 µM (active)
same,IC50,[21],14.8 µM (active)
same,CC50,[22],8.83 µM (active)
CN(C)c1ccc(-c2noc(C3CCN(S(=O)(=O)c4cccc(Cl)c4)CC3)n2)cc1,EC50,[23],1.23 µM (active)
O=C(CSc1nc2ccccc2c(=O)n1-c1ccccc1)NC(=O)CN1CCCC1=O,EC50,[24],9.42 µM (active)
same,EC50,cells [25],> 350 µM (not active)
same,EC50,cells [26],> 350 µM (not active)
same,EC50,[27],2.96 µM (active)
same,IC50,[28],8.75 µM (active)
COc1ccc(S(=O)(=O)N2CCOC23CCN(C(=O)c2ccc(Cl)cc2Cl)CC3)cc1,CC50,Vero [29],> 25 µM (active)
same,IC50,Vero [30],> 25 µM (active)
COc1ccc(C(CNC(=O)CCc2ccsc2)N(C)C)cc1 (stereo unspecified),EC50,[31],0.0147 µM (active)
same,EC50,[32],25.6 µM (inactive)
same,EC50,Mu-type opioid receptor [33],1.42 µM (active)
same,EC50,[34],> 92.4 µM (inactive)
CC(C)COC(=O)OCN1C(=O)CN(CCN2CC(=O)N(COC(=O)OCC(C)C)C(=O)C2)CC1=O [SOBUZOXANE],AC50,Cytochrome P450 2C9,39.8 µM (inconclusive)
same,AC50,[35],35.5 µM (inconclusive)

# — ChEMBL document CHEMBL1201862, “PubChem BioAssay data set” (2004)
